# Experimental data as given in publication PMC7413254 (Nature Communications, 2020).
# Like-named read-outs stand apart in the source and are kept apart here.
# What was measured:
# PfCRT^3D7 [1] = target: T1, PfCRT^3D7 (Plasmodium falciparum, UniProt Q8IBZ9); assay: cell-based; format: cell-based
# In short: (§1)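 Oocytes (ten per treatment, ≥4 independent frogs/days) were preloaded by injecting VF-6 in 25 nL ND96 at pH 5.0, 5.5, 6.0 or 7.0, or Na^+-free choline buffer, then uptake run 1.5 h, 27.5 °C, ND96 pH 5.5 by default. Internal concentrations assumed ~400 nL oocyte volume.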
# PfCRT^Dd2 [2] = target: T2, PfCRT^Dd2 (Plasmodium falciparum, UniProt Q9N623, A220S/I356T/K76T/M74I/N326S/N75E/Q271E/R371I); assay: cell-based; format: cell-based; conditions: […]; for activity at 45000 µM: [test solute]i = 45 mM (30 mM for some solutes due to solubility)
# T2 sequence (Q9N623 whole entry A220S/I356T/K76T/M74I/N326S/N75E/Q271E/R371I): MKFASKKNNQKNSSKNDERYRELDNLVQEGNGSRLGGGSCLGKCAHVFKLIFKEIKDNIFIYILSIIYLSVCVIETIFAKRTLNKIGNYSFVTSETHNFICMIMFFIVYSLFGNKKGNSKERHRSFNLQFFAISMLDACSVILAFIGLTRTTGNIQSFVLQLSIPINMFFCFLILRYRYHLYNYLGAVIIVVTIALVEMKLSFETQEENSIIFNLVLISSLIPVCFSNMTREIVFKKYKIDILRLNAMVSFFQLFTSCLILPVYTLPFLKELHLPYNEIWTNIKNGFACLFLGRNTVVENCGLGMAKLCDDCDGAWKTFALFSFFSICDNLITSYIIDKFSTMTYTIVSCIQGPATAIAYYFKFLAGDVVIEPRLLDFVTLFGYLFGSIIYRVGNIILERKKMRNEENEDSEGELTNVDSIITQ
# In short: as §1
# PfCRT^Ecu1110 [3] = target: T3, PfCRT^Ecu1110 (Plasmodium falciparum, UniProt Q9N623, A220S/I356L/K76T/N326D); assay: cell-based; format: cell-based; conditions: […]
# T3 sequence (Q9N623 whole entry A220S/I356L/K76T/N326D): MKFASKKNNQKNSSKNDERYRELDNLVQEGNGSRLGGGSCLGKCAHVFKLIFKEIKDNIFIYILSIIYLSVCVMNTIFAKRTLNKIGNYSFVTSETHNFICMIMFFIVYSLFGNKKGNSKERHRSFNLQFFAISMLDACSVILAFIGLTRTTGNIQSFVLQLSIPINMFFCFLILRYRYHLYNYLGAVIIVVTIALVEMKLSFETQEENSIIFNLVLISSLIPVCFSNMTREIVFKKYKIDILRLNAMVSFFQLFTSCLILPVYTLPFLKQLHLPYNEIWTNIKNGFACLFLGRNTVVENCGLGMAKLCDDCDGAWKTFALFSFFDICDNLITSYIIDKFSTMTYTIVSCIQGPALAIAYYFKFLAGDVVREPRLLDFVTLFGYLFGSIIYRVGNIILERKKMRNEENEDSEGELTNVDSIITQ
# In short: as §1
# PfNT1 = target: T4, PfNT1 (Plasmodium falciparum, UniProt Q8IDM6); assay: cell-based; format: cell-based; conditions: for activity at 5000 µM: total [3H]CQ transport
# T4 construct: expressed in transfected cells; host or cells: Xenopus laevis oocytes (stage V-VI), cRNA-injected
# T4 sequence (Q8IDM6 whole entry): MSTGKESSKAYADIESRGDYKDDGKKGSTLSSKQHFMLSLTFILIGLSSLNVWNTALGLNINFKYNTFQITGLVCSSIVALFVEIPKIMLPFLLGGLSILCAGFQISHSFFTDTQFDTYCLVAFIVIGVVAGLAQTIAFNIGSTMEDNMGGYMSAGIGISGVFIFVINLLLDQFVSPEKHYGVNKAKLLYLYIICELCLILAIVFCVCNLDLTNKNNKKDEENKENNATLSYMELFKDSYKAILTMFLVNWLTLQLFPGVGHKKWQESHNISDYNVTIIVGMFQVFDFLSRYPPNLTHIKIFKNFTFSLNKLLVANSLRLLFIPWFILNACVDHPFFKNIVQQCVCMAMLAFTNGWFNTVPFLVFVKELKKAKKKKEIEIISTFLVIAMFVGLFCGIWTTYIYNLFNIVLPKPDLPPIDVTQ
# In short: as §1
# PfCRT^Dd2 [4] = target: T2, PfCRT^Dd2; assay: [3H]CQ uptake into Xenopus oocytes, cis-inhibition by unlabelled solute; format: cell-based
# In short: (§2)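 Transport runs from the acidic bath into the cytosol, analogous to PfCRT-mediated efflux out of the vacuole. Non-expressing oocytes act as background.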
# PfCRT^Ecu1110 [5] = target: T3, PfCRT^Ecu1110; assay: as above; format: cell-based
# In short: as §2
# PfCRT [6] = assay: Test of solutes as potential co-substrates for influx of VF-6 via PfCRT into the oocyte; format: cell-based, Plasmodium falciparum; design: key: X: Compounds that have been tested as potential co-substrates but are not required for influx of VF-6 via PfCRT into the oocyte; conditions: X = tested
# non-expressing oocytes [7] = assay: cells; format: cell-based, Xenopus laevis; conditions: Xenopus laevis, total [3H]CQ transport; for inhibition at 500 µM: [test solute] = 0.5 mM; for inhibition at 1000 µM: [test solute] = 1 mM; for inhibition at 2000 µM: [test solute] = 2 mM
# In short: as §2
# non-expressing oocytes [8] = format: cell-based, Xenopus laevis; conditions: total [3H]CQ transport; for Uptake of [3H]CQ (% non-expressing oocyte control), trans-stimulation: non-expressing oocytes, normalised to the oocyte type control; for Uptake of [3H]CQ (% PfCRTDd2 control), trans-stimulation, non-expressing oocytes: mean ± SEM, SEM
# In short: as §1
# PfCRT^3D7 [9] = target: T1, PfCRT^3D7; assay: cell-based; format: cell-based; conditions: total [3H]CQ transport; for inhibition at 500 µM: [test solute] = 0.5 mM; for inhibition at 1000 µM: [test solute] = 1 mM; for inhibition at 2000 µM: [test solute] = 2 mM
# In short: as §2
# PfCRT [10] = assay: Influx of VF-6 via PfCRT into the oocyte, solutes tested as potential co-substrates; format: cell-based, Plasmodium falciparum; design: key: X: Compounds that have been tested as potential co-substrates but are not required for influx of VF-6 via PfCRT into the oocyte; conditions: X marks the solute
# [11] = read-out: PfCRT-mediated [3H]CQ transport, cis-inhibition (% PfCRTDd2 control)
# [12] = read-out: Uptake of [3H]CQ (% PfCRTDd2 control), cis-inhibition
# [13] = read-out: Uptake of [3H]CQ (% PfCRTDd2 control), cis-inhibition, PfCRTDd2, SEM
# [14] = read-out: [3H]CQ transport (% PfCRTDd2 control), cis-inhibition, PfCRTDd2, SEM
# [15] = read-out: PfCRT-mediated [3H]CQ transport, cis-inhibition (% PfCRTEcu1110 control)
# [16] = read-out: Uptake of [3H]CQ (% PfCRTDd2 control), cis-inhibition, PfCRTEcu1110, SEM
# [17] = read-out: Uptake of [3H]CQ (% PfCRTEcu1110 control), cis-inhibition
# [18] = read-out: [3H]CQ transport (% PfCRTEcu1110 control), cis-inhibition, PfCRTEcu1110, SEM
# [19] = Oocyte, mean ± SEM, SEM, read-out: Uptake of [3H]CQ (% PfCRTDd2 control), cis-inhibition, non-expressing oocytes
# [20] = non-expressing oocytes, normalised to the oocyte type control, read-out: Uptake of [3H]CQ (% non-expressing oocyte control), cis-inhibition
# [21] = PfCRT3D7 oocytes, normalised to the oocyte type control, read-out: Uptake of [3H]CQ (% PfCRT3D7 control), cis-inhibition
# [22] = mean ± SEM, SEM, read-out: Uptake of [3H]CQ (% PfCRTDd2 control), cis-inhibition, PfCRT3D7
# T1 sequence (Q8IBZ9 59-398): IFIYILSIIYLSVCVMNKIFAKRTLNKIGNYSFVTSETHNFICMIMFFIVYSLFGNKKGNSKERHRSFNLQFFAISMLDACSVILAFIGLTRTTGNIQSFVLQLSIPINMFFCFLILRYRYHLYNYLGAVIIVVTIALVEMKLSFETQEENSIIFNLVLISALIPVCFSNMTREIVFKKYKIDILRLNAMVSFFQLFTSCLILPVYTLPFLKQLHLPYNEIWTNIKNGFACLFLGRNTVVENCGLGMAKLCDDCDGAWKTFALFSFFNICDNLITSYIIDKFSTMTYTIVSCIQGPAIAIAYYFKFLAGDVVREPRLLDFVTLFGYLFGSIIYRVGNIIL
smiles,measurement,setting,value
N[C@@H](Cc1c[nH]c2ccccc12)C(=O)O [L-tryptophan],activity at 5000 µM,"PfCRT^3D7 [1]; PfCRT3D7 oocytes, [test solute]i = 5 mM, total [3H]CQ transport, normalised to the oocyte type control, read-out: Uptake of [3H]CQ (% PfCRT3D7 control), trans-stimulation",100 ± 3.5%
same,"[3H]CQ transport (% PfCRT3D7 control), trans-stimulation, PfCRT3D7",PfCRT^3D7 [1]; SEM,0.3 ± 0.02 % PfCRT3D7 control
same,activity at 5000 µM,"PfCRT^3D7 [1]; [test solute]i = 5 mM (intracellular), PfCRT3D7 oocytes, normalised to oocyte type control, read-out: PfCRT-mediated [3H]CQ transport, trans-stimulation (% PfCRT3D7 control)",98 ± 4.7%
same,activity at 45000 µM,"PfCRT^3D7 [1]; SEM, read-out: Uptake of [3H]CQ (% PfCRTDd2 control), trans-stimulation, PfCRT3D7",3.4 ± 0.06%
same,activity at 45000 µM,"PfCRT^3D7 [1]; read-out: PfCRT-mediated [3H]CQ transport, trans-stimulation (% PfCRT3D7 control)",99 ± 3.4%
same,activity at 45000 µM,"PfCRT^3D7 [1]; read-out: Uptake of [3H]CQ (% PfCRT3D7 control), trans-stimulation",101 ± 2.5%
same,activity at 5000 µM,"PfCRT^3D7 [1]; total [3H]CQ transport, [test solute]i = 5 mM (intracellular), mean ± SEM, SEM, read-out: Uptake of [3H]CQ (% PfCRTDd2 control), trans-stimulation, PfCRT3D7",3.3 ± 0.06%
same,activity at 5000 µM,"PfCRT^Dd2 [2]; pH 5.5, read-out: PfCRT-mediated [3H]CQ transport, trans-stimulation (% PfCRTDd2 control), [test solute]i = 5 mM (intracellular), PfCRTDd2 oocytes, normalised to oocyte type control",98 ± 1.6%
same,activity at 5000 µM,"PfCRT^Dd2 [2]; pH 5.5, read-out: Uptake of [3H]CQ (% PfCRTDd2 control), trans-stimulation, PfCRTDd2, total [3H]CQ transport, [test solute]i = 5 mM (intracellular), mean ± SEM, SEM",100 ± 2.2%
same,activity at 5000 µM,"PfCRT^Dd2 [2]; pH 5.5, read-out: Uptake of [3H]CQ (% PfCRTDd2 control), trans-stimulation, PfCRTDd2 oocytes, [test solute]i = 5 mM, total [3H]CQ transport, normalised to the oocyte type control",100 ± 2.2%
same,activity at 45000 µM,"PfCRT^Dd2 [2]; pH 5.5, read-out: Uptake of [3H]CQ (% PfCRTDd2 control), trans-stimulation, PfCRTDd2 oocytes, total [3H]CQ transport, normalised to the oocyte type control",101 ± 2.4%
same,activity at 5000 µM,"PfCRT^Dd2 [2]; pH 5.5, read-out: [3H]CQ transport (% PfCRTDd2 control), trans-stimulation, PfCRTDd2, trans-stimulation, [test solute]i = 5 mM (injected), PfCRT-mediated component (background subtracted), mean ± SEM, SEM",98 ± 1.6%
same,activity at 45000 µM,"PfCRT^Dd2 [2]; pH 5.5, read-out: [3H]CQ transport (% PfCRTDd2 control), trans-stimulation, PfCRTDd2, trans-stimulation, PfCRT-mediated component (background subtracted), mean ± SEM, SEM",99 ± 1.9%
same,activity at 5000 µM,"PfCRT^Ecu1110 [3]; pH 5.5, read-out: PfCRT-mediated [3H]CQ transport, trans-stimulation (% PfCRTEcu1110 control), [test solute]i = 5 mM (intracellular), PfCRTEcu1110 oocytes, normalised to oocyte type control",97 ± 2.2%
same,activity at 5000 µM,"PfCRT^Ecu1110 [3]; pH 5.5, read-out: Uptake of [3H]CQ (% PfCRTEcu1110 control), trans-stimulation, PfCRTEcu1110 oocytes, [test solute]i = 5 mM, total [3H]CQ transport, normalised to the oocyte type control",99 ± 3.1%
same,activity at 45000 µM,"PfCRT^Ecu1110 [3]; pH 5.5, read-out: Uptake of [3H]CQ (% PfCRTEcu1110 control), trans-stimulation, PfCRTEcu1110 oocytes, [test solute]i = 45 mM (30 mM for some solutes due to solubility), total [3H]CQ transport, normalised to the oocyte type control",99 ± 3.5%
same,activity at 5000 µM,"PfCRT^Ecu1110 [3]; read-out: Uptake of [3H]CQ (% PfCRTDd2 control), trans-stimulation, PfCRTEcu1110, total [3H]CQ transport, [test solute]i = 5 mM (intracellular), mean ± SEM, SEM",35 ± 1.9%
same,activity at 45000 µM,"PfCRT^Ecu1110 [3]; read-out: Uptake of [3H]CQ (% PfCRTDd2 control), trans-stimulation, PfCRTEcu1110, total [3H]CQ transport, [test solute]i = 45 mM (intracellular; 30 mM for some solutes due to solubility), mean ± SEM, SEM",35 ± 2.1%
same,activity at 5000 µM,"PfNT1; PfNT1 oocytes, [test solute]i = 5 mM, normalised to the oocyte type control, read-out: Uptake of [3H]CQ (% PfNT1 control), trans-stimulation",101 ± 3.9%
same,activity at 45000 µM,"PfNT1; SEM, read-out: Uptake of [3H]CQ (% PfCRTDd2 control), trans-stimulation, PfNT1",2.1 ± 0.03%
same,activity at 45000 µM,"PfNT1; read-out: Uptake of [3H]CQ (% PfNT1 control), trans-stimulation",98 ± 3.2%
same,activity at 5000 µM,"PfNT1; [test solute]i = 5 mM (intracellular), mean ± SEM, SEM, read-out: Uptake of [3H]CQ (% PfCRTDd2 control), trans-stimulation, PfNT1",2.7 ± 0.05%
same,inhibition at 500 µM,PfCRT^Dd2 [4]; [11],94 ± 4.6%
same,inhibition at 1000 µM,PfCRT^Dd2 [4]; [11],95 ± 1.9%
same,inhibition at 2000 µM,PfCRT^Dd2 [4]; [11],95 ± 1.9%
same,inhibition at 1000 µM,PfCRT^Dd2 [4]; [12],97 ± 2.6%
same,inhibition at 2000 µM,PfCRT^Dd2 [4]; [12],97 ± 2.5%
same,inhibition at 500 µM,PfCRT^Dd2 [4]; [13],96 ± 2.1%
same,inhibition at 1000 µM,PfCRT^Dd2 [4]; [13],97 ± 2.6%
same,inhibition at 2000 µM,PfCRT^Dd2 [4]; [13],97 ± 2.5%
same,inhibition at 1000 µM,PfCRT^Dd2 [4]; [14],95 ± 1.9%
same,inhibition at 2000 µM,PfCRT^Dd2 [4]; [14],95 ± 1.9%
same,inhibition at 500 µM,PfCRT^Ecu1110 [5]; [15],96 ± 3.7%
same,inhibition at 1000 µM,PfCRT^Ecu1110 [5]; [15],95 ± 4.6%
same,inhibition at 500 µM,PfCRT^Ecu1110 [5]; [16],32 ± 1.6%
same,inhibition at 1000 µM,PfCRT^Ecu1110 [5]; [16],32 ± 0.6%
same,inhibition at 2000 µM,PfCRT^Ecu1110 [5]; [16],33 ± 1.4%
same,inhibition at 500 µM,PfCRT^Ecu1110 [5]; [17],98 ± 2.5%
same,inhibition at 1000 µM,PfCRT^Ecu1110 [5]; [17],97 ± 2.7%
same,inhibition at 2000 µM,PfCRT^Ecu1110 [5]; [17],101 ± 3.1%
same,inhibition at 500 µM,PfCRT^Ecu1110 [5]; [18],29 ± 1.3%
same,inhibition at 1000 µM,PfCRT^Ecu1110 [5]; [18],29 ± 0.3%
same,inhibition at 2000 µM,PfCRT^Ecu1110 [5]; [18],30 ± 1.4%
same,Tested as potential co-substrate but not required for influx of VF-6 via PfCRT into the oocyte,PfCRT [6],X
same,inhibition at 500 µM,non-expressing oocytes [7]; [19],2.1 ± 0.07%
same,inhibition at 1000 µM,non-expressing oocytes [7]; [19],3.4 ± 0.1%
same,inhibition at 2000 µM,non-expressing oocytes [7]; [19],3.6 ± 0.09%
same,inhibition at 500 µM,non-expressing oocytes [7]; [20],97 ± 3.2%
same,inhibition at 1000 µM,non-expressing oocytes [7]; [20],100 ± 3.6%
same,inhibition at 2000 µM,non-expressing oocytes [7]; [20],100 ± 6.3%
same,"Uptake of [3H]CQ (% non-expressing oocyte control), trans-stimulation",non-expressing oocytes [8]; [test solute]i = 5 mM,98 ± 2.5 % non-expressing oocyte control
same,"Uptake of [3H]CQ (% non-expressing oocyte control), trans-stimulation",non-expressing oocytes [8]; [test solute]i = 45 mM (30 mM for some solutes due to solubility),99 ± 2.1 % non-expressing oocyte control
same,"Uptake of [3H]CQ (% PfCRTDd2 control), trans-stimulation, non-expressing oocytes",non-expressing oocytes [8]; [test solute]i = 5 mM (intracellular),3.0 ± 0.04 % PfCRTDd2 control
same,"Uptake of [3H]CQ (% PfCRTDd2 control), trans-stimulation, non-expressing oocytes",non-expressing oocytes [8]; [test solute]i = 45 mM (intracellular; 30 mM for some solutes due to solubility),3.2 ± 0.01 % PfCRTDd2 control
same,inhibition at 500 µM,PfCRT^3D7 [9]; [21],100 ± 3.2%
same,inhibition at 1000 µM,PfCRT^3D7 [9]; [21],99 ± 4.6%
same,inhibition at 2000 µM,PfCRT^3D7 [9]; [21],100 ± 3.6%
same,inhibition at 500 µM,PfCRT^3D7 [9]; [22],2.7 ± 0.03%
same,inhibition at 1000 µM,PfCRT^3D7 [9]; [22],2.5 ± 0.04%
same,inhibition at 2000 µM,PfCRT^3D7 [9]; [22],2.7 ± 0.04%
same,Compounds that have been tested as potential co-substrates but are not required for influx of VF-6 via PfCRT into the oocyte,PfCRT [10],X
